{"source": "patent US12251382B2", "about": "“Substituted amino-pyrimidine compound for use in a method for treatment and prevention of multiple sclerosis” (Merck Patent GmbH, priority 2018, dated 2025)", "key": {"[1]": {"test": "Phase I Holter ECG assessment and concentration-QTcF analysis", "type": "in vivo, human", "details": "for Mean ΔΔQTcF: 100 mg dose group (n=6); for Predicted mean ΔΔQTcF: linear mixed model", "experimental": "Holter ECG recordings of 24 h duration were performed on Day 1 in Parts 1 and 2 of the study using digital 12-lead Holter devices (GI M12R, Manlius, N.Y.) and analyzed in the Quintiles central ECG laboratory. Ten second 12-lead ECGs were extracted in triplicate using Antares ECG extraction software (version 2.15.1.0, AMPS-LLC, New York, N.Y.) for each PK time point (predose and 0.25, 0.5, 1.0, 1.5, 2, 2.5, 3, 4, 5, 6, 8, 12, 16, 24 h postdose) within a −5 to 0 minute window prior to and a 5 minute window after each sampling time point. The quality of extracted ECG snapshots was checked by a Holter Associate/Specialist using the Anatares quality control review interface. The mean QT and RR values from the triplicate ECGs were used to calculate QTcF for each time point.\nThe dataset consisted of Day 1 ECG and PK data from all subjects in Parts 1 and 2 of the study.\nModel derived predicted mean ΔΔQTcF was calculated for the geometric mean Cmax of each dose cohort. Two-sided 90% CIs of the estimate were determined using bootstrapping (1,000 resamples). By-time point analysis of actual values and change from baseline was performed for QTcF. Mean ΔΔQTcF with an associated 90% CI was summarized by time point for each dose cohort."}, "[2]": {"test": "Phase II RMS study: safety (adverse events, laboratory) over 24 weeks", "type": "in vivo", "experimental": "The assessing Investigator and central MRI reader were treatment blinded.\nSafety profile of the IMP was assessed through the recording, reporting and analysis of baseline medical conditions; AEs; physical examination findings including vital signs, ECGs, and laboratory tests (including Ig and subclass concentration and B, NK, and T cell counts). Comprehensive assessment of any apparent toxicity experienced by each subject was performed from the time of giving informed consent and throughout the trial. The Investigator was to report any AEs, whether observed by the Investigator or reported by the subject.\nAdverse Event: An AE was any untoward medical occurrence in a subject or clinical investigation subject administered a pharmaceutical product, regardless of causal relationship with this treatment. An AE could therefore be any unfavorable and unintended sign (including an abnormal laboratory finding), symptom, or disease temporally associated with the use of a medicinal product, whether or not considered related to the medicinal product.\nThe Investigator was required to grade the severity or toxicity of each AE. Investigators referenced the National Cancer Institute-Common Terminology Criteria for AEs (NCI-CTCAE), Version 4.03 (publication date: 14 Jun. 2010) a descriptive terminology provided in the Manual of Procedures that can be used for AE reporting.\nA general grading (severity/intensity; hereafter referred to as severity) scale was provided at the beginning of the above referenced document, and specific event grades were also provided. Only if a particular AE's severity was not specifically graded by the guidance document, then the Investigator was to use the general NCI-CTCAE definitions of Grade 1 through Grade 5 following his or her best medical judgment. The 5 general grades are: • Grade 1 or Mild • Grade 2 or Moderate • Grade 3 or Severe • Grade 4 or Life-threatening • Grade 5 or Death.\nSerious Adverse Events: An SAE is any untoward medical occurrence that at any dose: • Results in death. • Is life-threatening. (Note: The term “life-threatening” refers to an event in which the subject is at risk of death at the time of the event, not an event that hypothetically might have caused death if it was more severe) • Requires inpatient hospitalization or prolongs an existing hospitalization, except in the case of hospitalizations due to protocol-defined relapses. • Results in persistent or significant disability or incapacity. • Is a congenital anomaly or birth defect. • Is otherwise considered to be medically important."}, "[3]": {"test": "Phase I Part 1: plasma pharmacokinetics after single oral dose", "type": "in vivo, human", "details": "for MRT / AUC0−∞ / Cmax / T1/2: geometric mean", "experimental": "To test dose proportionality, PK parameters were analyzed graphically as AUC/dose and Cmax/dose and via a power model (PK parameter=α*dose^β) approach with log-transformed PK parameters as the dependent variable and log-transformed dose as the independent variable."}}, "note": "Entries after “also recorded” stand apart in the source; their conditions may differ.", "data": [{"smiles": "C=CC(=O)N1CCC(CNc2ncnc(N)c2-c2ccc(Oc3ccccc3)cc2)CC1", "note": "[Evobrutinib, 1-(4-(((6-amino-5-(4-phenoxyphenyl)pyrimidin-4-yl)amino)methyl)piperidin-1-yl)prop-2-en-1-one]", "values": [{"measurement": "Geometric mean Cmax", "setting": "[1]; 25 mg dose group, Day 1, Parts 1 and 2", "result": 86.48, "unit": "ng/mL"}, {"measurement": "Geometric mean Cmax", "setting": "[1]; 25 mg dose group, Day 1, Parts 1 and 2, listed as evobrutinib", "result": 86.5, "unit": "ng/mL"}, {"measurement": "Geometric mean Cmax", "setting": "[1]; 50 mg dose group, Day 1", "result": 233.9, "unit": "ng/mL"}, {"measurement": "Geometric mean Cmax", "setting": "[1]; 75 mg dose group, Day 1", "result": 253.9, "unit": "ng/mL"}, {"measurement": "Mean ΔΔQTcF", "setting": "[1]; 6 h post-dose", "result": 7.1, "unit": "ms"}, {"measurement": "Mean ΔΔQTcF", "setting": "[1]; 8 h post-dose", "result": 5.6, "unit": "ms"}, {"measurement": "Mean ΔΔQTcF", "setting": "[1]; 12 h post-dose", "result": 7.2, "unit": "ms"}, {"measurement": "Geometric mean Cmax", "setting": "[1]; 100 mg dose group, Day 1", "result": 308.6, "unit": "ng/mL"}, {"measurement": "Geometric mean Cmax", "setting": "[1]; 200 mg dose group, Day 1, Parts 1 and 2", "result": 689.2, "unit": "ng/mL"}, {"measurement": "Geometric mean Cmax", "setting": "[1]; 350 mg dose group, Day 1", "result": 845.9, "unit": "ng/mL"}, {"measurement": "Geometric mean Cmax", "setting": "[1]; 500 mg dose group, Day 1", "result": 1512.3, "unit": "ng/mL"}, {"measurement": "Geometric mean Cmax", "setting": "[1]; 500 mg dose group, Day 1, listed as evobrutinib", "result": "1,512 ng/ml"}, {"measurement": "Subjects with change from baseline in QTcF between 30 ms and 60 ms", "setting": "[1]; 2 of 81 subjects, both in the 200 mg dose group", "result": 2.5, "unit": "%"}, {"measurement": "Change from baseline in QTcF", "setting": "[1]; all ECGs", "result": "≤ 60", "unit": "ms"}, {"measurement": "Mean ΔΔQTcF over the range of doses evaluated", "setting": "[1]; all time points, with the exception of the 100 mg dose group", "result": "< 5", "unit": "ms"}, {"measurement": "Absolute QTcF value", "setting": "[1]; any dose group, any time point", "result": "≤ 450", "unit": "ms"}, {"measurement": "Predicted mean ΔΔQTcF", "setting": "[1]; at geometric mean Cmax of 25 mg dose group", "result": -0.78, "unit": "ms"}, {"measurement": "Predicted mean ΔΔQTcF", "setting": "[1]; at geometric mean Cmax of 50 mg dose group", "result": -0.82, "unit": "ms"}, {"measurement": "Predicted mean ΔΔQTcF", "setting": "[1]; at geometric mean Cmax of 75 mg dose group", "result": -0.82, "unit": "ms"}, {"measurement": "Predicted mean ΔΔQTcF", "setting": "[1]; at geometric mean Cmax of 100 mg dose group", "result": -0.84, "unit": "ms"}, {"measurement": "Predicted mean ΔΔQTcF", "setting": "[1]; at geometric mean Cmax of 200 mg dose group", "result": -0.94, "unit": "ms"}, {"measurement": "Predicted mean ΔΔQTcF", "setting": "[1]; at geometric mean Cmax of 350 mg dose group", "result": -0.98, "unit": "ms"}, {"measurement": "Predicted mean ΔΔQTcF", "setting": "[1]; at geometric mean Cmax of 500 mg dose group", "result": -1.16, "unit": "ms"}, {"measurement": "Change from baseline in HR, PR and QRS values post-dose", "setting": "[1]; categorical analysis", "result": "no clinically significant change from baseline"}, {"measurement": "Slope of the relationship between placebo-adjusted ΔQTcF and concentration", "setting": "[1]; linear mixed-effects model, P=0.86", "result": "−0.00027", "unit": "ms/ng per mL"}, {"measurement": "Subjects with treatment-emergent T wave morphological abnormalities", "setting": "[1]; one in the 50 mg and one in the 100 mg dose group", "result": "two"}, {"measurement": "Effect on QTcF / exposure-effect relationship", "setting": "[1]; single doses up to 500 mg", "result": "did not prolong QTcF; also recorded: No evidence of a significant exposure-effect relationship; also recorded: no prolongation of QTcF"}, {"measurement": "Hysteresis between plasma concentration and ΔQTcF", "setting": "[1]; statistical test based on ΔΔQTcF", "result": "no evidence of hysteresis"}, {"measurement": "Deaths or additional emerging safety signals", "setting": "[2]; 24 weeks", "result": "no deaths or additional emerging safety signals"}, {"measurement": "TEAEs of grade 4 or 5", "setting": "[2]; human, in vivo, 24 weeks", "result": "no TEAEs of grade 4 or 5"}, {"measurement": "Hematological abnormalities, such as lymphopenia", "setting": "[2]; in vivo", "result": "None of the three evobrutinib doses were associated with hematological abnormalities, such as lymphopenia"}, {"measurement": "Hy's Law cases among Grade 3 transaminase elevations", "setting": "[2]; in vivo", "result": "no Hy's Law cases"}, {"measurement": "Infection rates versus placebo", "setting": "[2]; in vivo", "result": "lower than those with placebo"}, {"measurement": "Time after dosing up to which concentrations above LLOQ were measurable", "setting": "[3]; 350 and 500 mg, some (n=3) subjects", "result": "up to 48 h"}, {"measurement": "Vd/F", "setting": "[3]; both sexes, human, plasma, oral, all doses, read-out: Relevant Vz/F", "result": "~650", "unit": "L"}, {"measurement": "MRT", "setting": "[3]; human, plasma, oral, single dose 25 mg", "result": 1.82, "unit": "h"}, {"measurement": "MRT", "setting": "[3]; human, plasma, oral, single dose 50 mg", "result": 1.82, "unit": "h"}, {"measurement": "MRT", "setting": "[3]; human, plasma, oral, single dose 100 mg", "result": 1.7, "unit": "h"}, {"measurement": "MRT", "setting": "[3]; human, plasma, oral, single dose 200 mg", "result": 1.8, "unit": "h"}, {"measurement": "MRT", "setting": "[3]; human, plasma, oral, single dose 350 mg", "result": 2.26, "unit": "h"}, {"measurement": "MRT", "setting": "[3]; human, plasma, oral, single dose 500 mg", "result": 2.19, "unit": "h"}, {"measurement": "PK profile in words (clearance, Vz/f, t1/2)", "setting": "[3]; humans", "result": "moderate-to-high plasma clearance, medium Vz/f, and short t1/2"}, {"measurement": "Apparent clearance (CL/F)", "setting": "[3]; range across single doses", "result": "2,553-3,995 mL/min"}, {"measurement": "AUC0−∞", "setting": "[3]; single dose 25 mg", "result": 104, "unit": "ng·h/mL"}, {"measurement": "Cmax", "setting": "[3]; single dose 25 mg", "result": 69.9, "unit": "ng/mL"}, {"measurement": "T1/2", "setting": "[3]; single dose 25 mg", "result": 1.80, "unit": "h"}, {"measurement": "AUC0−∞", "setting": "[3]; single dose 50 mg", "result": 326, "unit": "ng·h/mL"}, {"measurement": "Cmax", "setting": "[3]; single dose 50 mg", "result": 234, "unit": "ng/mL"}, {"measurement": "T1/2", "setting": "[3]; single dose 50 mg", "result": 2.06, "unit": "h"}, {"measurement": "AUC0−∞", "setting": "[3]; single dose 100 mg", "result": 434, "unit": "ng·h/mL"}, {"measurement": "Cmax", "setting": "[3]; single dose 100 mg", "result": 309, "unit": "ng/mL"}, {"measurement": "T1/2", "setting": "[3]; single dose 100 mg", "result": 2.56, "unit": "h"}, {"measurement": "AUC0−∞", "setting": "[3]; single dose 200 mg", "result": 856, "unit": "ng·h/mL"}, {"measurement": "Cmax", "setting": "[3]; single dose 200 mg", "result": 555, "unit": "ng/mL"}, {"measurement": "T1/2", "setting": "[3]; single dose 200 mg", "result": 2.09, "unit": "h"}, {"measurement": "AUC0−∞", "setting": "[3]; single dose 350 mg", "result": "1,910 ng * h/mL"}, {"measurement": "Cmax", "setting": "[3]; single dose 350 mg", "result": 846, "unit": "ng/mL"}, {"measurement": "T1/2", "setting": "[3]; single dose 350 mg", "result": 6.81, "unit": "h"}, {"measurement": "AUC0−∞", "setting": "[3]; single dose 500 mg", "result": "3,220 ng * h/mL"}, {"measurement": "Cmax", "setting": "[3]; single dose 500 mg", "result": 1510, "unit": "ng/mL"}, {"measurement": "T1/2", "setting": "[3]; single dose 500 mg", "result": 6.63, "unit": "h"}, {"measurement": "Apparent geometric mean terminal half-life (t1/2)", "setting": "[3]; single doses 25-200 mg", "result": "1.8 to 2.6", "unit": "h"}, {"measurement": "Apparent geometric mean terminal half-life (t1/2)", "setting": "[3]; single doses 350 and 500 mg", "result": "6.6 to 6.8", "unit": "h"}, {"measurement": "Plasma concentration remaining after Cmax", "setting": "[3]; within 8 h, dose-independent", "result": "less than 1 % of Cmax"}, {"measurement": "Relevant t1/2", "setting": "[3]; within the first 8 h, all doses", "result": "~2", "unit": "h"}]}]}
